According to patent US9260731B2 (RELIANCE INDUSTRIES LIMITED, priority 2012, dated 2016):
Read-outs that look alike come from different tables or passages of the source.

Tests used:
[1] = tested on: wild type C. acetobutylicum; experiment: Rhodamine 6G accumulation on AT agar, wild type; format: cell-based, Clostridium acetobutylicum; conditions: 100 μg/ml in AT agar, 24 h, 37° C., anaerobic
Procedure: (§1) Cells of overnight culture of wild type and solvent-tolerant mutant C. acetobutylicum MTCC 5587 were spotted on AT agar with or without rhodamine 6G (100 μg/ml) and incubated at 37° C. in anaerobic chamber for 24 h. Accumulation of rhodamine 6G was monitored under UV light (Lazaroaie, 2009).

[2] = tested on: solvent-tolerant mutant C. acetobutylicum MTCC 5587; experiment: Rhodamine 6G accumulation on AT agar, solvent-tolerant mutant; format: cell-based, Clostridium acetobutylicum; conditions: 100 μg/ml in AT agar, 24 h, 37° C., anaerobic
Procedure: as §1

[3] = tested on: C. acetobutylicum MTCC 5587 (mutant strain B90)
Procedure: Chemical mutagenesis was carried out using MNNG (1-methyl-3-nitro-1-nitrosoguanidine). Alternate thioglycolate (AT) media was inoculated with C. acetobutylicum ATCC 4259 from the stab culture. After 12 h growth at 37° C., the culture was harvested and centrifuged. The cell pellet was washed with 2 ml citrate buffer (pH 5.8) and 100 μl of MNNG (stock solution 100 mg/ml prepared in sterilized distilled water) was added to the cells, incubated at 30° C. for 70 min. The mutagenised cell mass was centrifuged and the supernatant discarded appropriately in biohazard containers. The cells were washed twice with AT broth and resuspended in 1 ml AT broth.
(§2) The tolerance and growth profile of the mutant was monitored with respect to time.

[4] = tested on: C. acetobutylicum ATCC 4259 (wild type strain)
From the text: as §2

Compound | accumulation of rhodamine 6G (colony colour under UV light) [1] | accumulation of rhodamine 6G intracellularly (colony colour under UV light) [2] | growth in presence of butanol ([3]; 3.8% butanol) | growth in presence of butanol ([3]; 4% butanol) | growth in presence of butanol ([3]; at the highest tolerated levels of butanol (up to […] v/v)) | butanol tolerated in the AT medium ([3]; mutant strain, AT medium) | butanol tolerated in the medium, beyond which there was cessation of growth [4]
CCN=c1cc2oc3cc(NCC)c(C)cc3c(-c3ccccc3C(=O)OCC)c-2cc1C.Cl [rhodamine 6G] | comparatively lower dye accumulation | high accumulation | – | – | – | – | –
n-butanol | – | – | no growth | no growth | extremely slow and feeble | up to 3.5 % (v/v) | up to 1.5%
